{"source": "patent US20230172961A1", "about": "(priority 2020, published 2023)", "key": {"[1]": {"molecular_target": "T1, SARS-CoV-2 RdRp (nsp12, nsp7 and nsp8) (Severe acute respiratory syndrome coronavirus 2, UniProt P0DTD1)", "details": "kinetic studies of Gordon et al 2020a, b; RDV-TP with MERS-CoV and SARS-CoV-2 RdRps; cited from earlier work"}, "Thermo Sequenase": {"system": "Thermo Sequenase", "assay": "DNA polymerase extension reaction, MALDI-TOF MS, high fidelity polymerase", "details": "10 µM nucleotide, DNA template and primer"}, "[2]": {"molecular_target": "SARS-CoV RdRp (nsp12, nsp7 and nsp8) (Severe acute respiratory syndrome coronavirus, UniProt P0C6X7)", "type": "biochemical"}, "Therminator IX": {"system": "Therminator IX", "details": "10 µM nucleotide, DNA template and primer, MALDI-TOF MS"}, "Therminator II": {"molecular_target": "Therminator II (Thermococcus sp., UniProt Q56366, A485L/D141A/E143A/Y409V)", "sequence (Q56366 whole entry D141A/E143A/Y409V/A485L)": "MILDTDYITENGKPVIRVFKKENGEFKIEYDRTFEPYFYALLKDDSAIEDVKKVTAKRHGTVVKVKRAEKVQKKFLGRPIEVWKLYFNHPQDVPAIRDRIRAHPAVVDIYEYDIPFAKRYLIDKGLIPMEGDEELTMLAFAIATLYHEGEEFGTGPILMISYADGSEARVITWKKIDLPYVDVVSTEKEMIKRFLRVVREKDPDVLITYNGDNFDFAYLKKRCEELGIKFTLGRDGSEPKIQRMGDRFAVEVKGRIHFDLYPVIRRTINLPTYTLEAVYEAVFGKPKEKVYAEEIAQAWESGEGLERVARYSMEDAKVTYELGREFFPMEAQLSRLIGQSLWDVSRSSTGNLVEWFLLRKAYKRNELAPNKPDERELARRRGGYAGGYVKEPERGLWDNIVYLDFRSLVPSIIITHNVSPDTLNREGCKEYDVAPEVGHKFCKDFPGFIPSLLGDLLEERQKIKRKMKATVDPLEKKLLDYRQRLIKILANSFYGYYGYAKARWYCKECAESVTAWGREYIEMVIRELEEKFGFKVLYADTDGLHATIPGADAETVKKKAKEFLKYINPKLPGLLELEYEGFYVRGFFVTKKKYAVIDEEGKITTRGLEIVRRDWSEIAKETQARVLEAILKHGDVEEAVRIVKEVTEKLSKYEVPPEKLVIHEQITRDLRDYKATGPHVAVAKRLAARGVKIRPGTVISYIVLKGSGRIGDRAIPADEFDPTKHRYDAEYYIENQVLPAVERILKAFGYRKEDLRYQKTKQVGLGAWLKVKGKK", "details": "10 µM nucleotide, DNA template and primer, MALDI-TOF MS"}, "[3]": {"molecular_target": "T1, SARS-CoV-2 RdRp (nsp12, nsp7 and nsp8)", "type": "biochemical"}, "SARS-CoV-2": {"system": "SARS-CoV-2", "details": "hamsters; cited from earlier work"}, "[4]": {"system": "SARS-CoV-2 infection of human brain organoids", "details": "cited from earlier work"}, "SARS-CoV-2 RdRp": {"molecular_target": "SARS-CoV-2 RdRp (Severe acute respiratory syndrome coronavirus 2, UniProt P0DTD1)", "details": "biochemical assays; cited from earlier work"}, "[5]": {"system": "SARS-CoV-2 in Calu-3 lung cells", "details": "screen of 1200 drugs; cited from earlier work"}, "[6]": {"molecular_target": "SARS-CoV-2 exonuclease complex (nsp14/nsp10) (Severe acute respiratory syndrome coronavirus 2, UniProt P0DTD1)", "assay": "Inhibition of SARS-CoV-2 exonuclease, MALDI-TOF MS", "type": "biochemical", "details": "30 nM nsp14/nsp10, 37° C., 15 min"}, "[7]": {"system": "SARS-CoV-2 in Vero and pulmonary epithelial cell culture", "details": "in the presence or absence of Ritonavir; cited from earlier work"}}, "data": [{"compound": "2′-fluoro-2′-methyl-UTP [2′-F,Me-UTP]", "values": [{"measurement": "incorporation efficiency relative to the natural nucleotide", "setting": "[1]", "value": "lower incorporation efficiency than the natural nucleotide"}, {"measurement": "incorporation and block of further nucleotide incorporation", "setting": "Thermo Sequenase", "value": "no incorporation"}, {"measurement": "termination of the polymerase reaction", "setting": "[2]", "value": "permanent terminators"}, {"measurement": "incorporation and block of further nucleotide incorporation", "setting": "Therminator IX", "value": "able to be incorporated and block further nucleotide incorporation"}, {"measurement": "incorporation and block of further nucleotide incorporation", "setting": "Therminator II", "value": "able to be incorporated and block further nucleotide incorporation"}, {"measurement": "incorporation efficiency", "setting": "[3]", "value": "efficient substrates of the RdRp"}, {"measurement": "termination of the polymerase reaction", "setting": "[3]", "value": "single nucleotide (2′-F,Me-UMP) primer extension product"}]}, {"compound": "CNC(=C[N+](=O)[O-])NCCSCc1ccc(CN(C)C)o1.O=C([O-])CC(O)(CC(=O)[O-])C(=O)[O-].[Bi+3]", "note": "[Ranitidine bismuth citrate]", "values": [{"measurement": "viral loads in the respiratory tract", "setting": "SARS-CoV-2", "value": "decrease viral loads in the respiratory tract of hamsters"}]}, {"compound": "CC(C)OC(=O)[C@H](C)N[P@](=O)(OC[C@H]1O[C@@H](n2ccc(=O)[nH]c2=O)[C@](C)(F)[C@@H]1O)Oc1ccccc1", "note": "[Sofosbuvir]", "values": [{"measurement": "protection from SARS-CoV-2 infection", "setting": "[4]", "value": "protect human brain organoids from SARS-CoV-2 infection"}]}, {"compound": "Cc1ccc(C(=O)Nc2ccc(S(=O)(=O)O)c3cc(S(=O)(=O)O)cc(S(=O)(=O)O)c23)cc1NC(=O)c1cccc(NC(=O)Nc2cccc(C(=O)Nc3cc(C(=O)Nc4ccc(S(=O)(=O)O)c5cc(S(=O)(=O)O)cc(S(=O)(=O)O)c45)ccc3C)c2)c1", "note": "[Suramin]", "values": [{"measurement": "potency relative to Remdesivir", "setting": "SARS-CoV-2 RdRp", "value": 20, "unit": "×"}]}, {"compound": "COC[C@H]1C[C@@H](c2nc(-c3ccc4c(c3)COc3cc5c(ccc6nc([C@@H]7CC[C@H](C)N7C(=O)[C@@H](NC(=O)OC)C(C)C)[nH]c65)cc3-4)c[nH]2)N(C(=O)[C@H](NC(=O)OC)c2ccccc2)C1", "note": "[Velpatasvir]", "values": [{"measurement": "synergism with Remdesivir in inhibiting viral production", "setting": "[5]", "value": "strongest effects"}, {"measurement": "inhibition of exonuclease activity", "setting": "[6]; 50 µM inhibitor", "value": "shows inhibition of the exonuclease activity"}, {"measurement": "inhibition of exonuclease activity", "setting": "[6]; 150 µM inhibitor", "value": "increased inhibition of exonuclease activity"}]}, {"compound": "COC(=O)N[C@H](C(=O)N[C@@H](Cc1ccccc1)[C@@H](O)CN(Cc1ccc(-c2ccccn2)cc1)NC(=O)[C@@H](NC(=O)OC)C(C)(C)C)C(C)(C)C", "note": "[atazanavir]", "values": [{"measurement": "inhibition of viral production", "setting": "[7]", "value": "inhibits viral production"}]}, {"compound": "Cc1cn([C@H]2C[C@H](O)[C@@H](COP(=O)(O)OP(=O)(O)OP(=O)(O)O)O2)c(=O)[nH]c1=O", "note": "[dTTP]", "values": [{"measurement": "incorporation and block of further nucleotide incorporation", "setting": "Thermo Sequenase", "value": "incorporation continued past the first A in the template"}, {"measurement": "incorporation and block of further nucleotide incorporation", "setting": "Therminator IX", "value": "incorporation continued past the first A in the template"}, {"measurement": "incorporation and block of further nucleotide incorporation", "setting": "Therminator II", "value": "incorporation continued past the first A in the template"}]}]}
